Results on 11 molecules are retold here after patent publication US20100056600A1, “11BETA-HSD1 ACTIVE COMPOUNDS” (priority 2007, published 2010).

As a reminder, the IC50 is the point on the concentration scale where inhibition reaches its midpoint. Read a high IC50 as weaker potency.

T1 sequence (P28845 whole entry): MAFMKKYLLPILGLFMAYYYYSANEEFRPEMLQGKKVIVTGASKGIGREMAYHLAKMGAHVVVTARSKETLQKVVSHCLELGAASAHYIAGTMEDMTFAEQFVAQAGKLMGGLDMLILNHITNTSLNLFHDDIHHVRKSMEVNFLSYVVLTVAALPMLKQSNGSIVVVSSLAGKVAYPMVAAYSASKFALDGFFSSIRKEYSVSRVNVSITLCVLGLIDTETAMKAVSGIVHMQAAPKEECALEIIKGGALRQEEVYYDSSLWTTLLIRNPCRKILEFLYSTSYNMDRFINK

The assay addresses T1, h-11βHSD1 (Homo sapiens, UniProt P28845).
T1 construct: made in house
In words: 11βHSD1 enzyme assay (SPA, 3H-cortisone to 3H-cortisol). The settings on record: extract of yeast transformed with h-11βHSD1; 120 nM 3H-cortisone, 4 mM β-NADPH, 60 min at 30° C. The class given is biochemical. As for the experimental part: ^3H-cortisone and anti-rabbit Ig coated scintillation proximity assay (SPA) beads were purchased from Amersham Pharmacia Biotech, β-NADPH was from Sigma and rabbit anti-cortisol antibodies were from Fitzgerald. An extract of yeast transformed with h-11βHSD1 (Hutt et al., FEBS Lett, 441, 25 (1998)) was used as the source of enzyme. The test compounds were dissolved in DMSO (10 mM). All dilutions were performed in a buffer containing 50 mM TRIS-HCl (Sigma Chemical Co), 4 mM EDTA (Sigma Chemical Co), 0.1% BSA (Sigma Chemical Co), 0.01% Tween-20 (Sigma Chemical Co) and 0.005% bacitracin (Novo Nordisk A/S), pH=7.4. Optiplate 96 wells plates were supplied by Packard. The amount of ^3H-cortisol bound to the SPA beads was measured on TopCount NXT, Packard.
h-11βHSD1, 120 nM ^3H-cortisone, 4 mM β-NADPH, antibody (1:200), serial dilutions of test compound and SPA particles (2 mg/well) were added to the wells. The reaction was initiated by mixing the different components and was allowed to proceed under shaking for 60 min at 30° C. The reaction was stopped be the addition of 10 fold excess of a stopping buffer containing 500 μM carbenoxolone and 1 μM cortisone. Data was analysed using GraphPad Prism software.
In turn, `O=C(c1ccc2c(c1)-c1ccccc1C2)N1C2CCC1CC(O)C2` (single isomer, unassigned) [Example 1, (9H-Fluoren-3-yl)-(cis 3-hydroxy-8-aza-bicyclo[3.2.1]oct-8-yl)-methanone] registered an IC50 of 0.008 µM.
`O=C(c1ccc2c(c1)-c1ccccc1C2)N1C2CCC1CC(O)C2` (single isomer, unassigned) [Example 2, (9H-Fluoren-3-yl)-(trans 3-hydroxy-8-aza-bicyclo[3.2.1]oct-8-yl)-methanone] came in with an IC50 of 0.246 µM.
For `Cn1c2ccccc2c2cc(C(=O)N3C4CCC3CC(O)C4)ccc21` (centres unmarked) [Example 3, (3-Hydroxy-8-aza-bicyclo[3.2.1]oct-8-yl)-(9-methyl-9H-carbazol-3-yl)-methanone] the value was 0.006 µM; for `O=C(c1ccc2[nH]c3ccccc3c2c1)N1C2CCC1CC(O)C2` (centres unmarked) [Example 4, (9H-Carbazol-3-yl)-(3-hydroxy-8-aza-bicyclo[3.2.1]oct-8-yl)-methanone], 0.03 µM; for `Cn1c2ccccc2c2cc(C(=O)N3CC4CC3CC4O)ccc21` (centres unmarked) [Example 5, (5-Hydroxy-2-aza-bicyclo[2.2.1]hept-2-yl)-(9-methyl-9H-carbazol-3-yl)-methanone], 0.064 µM.
Turning to `Cn1c2ccccc2c2cc(C(=O)N3CC4CC(O)CC3C4)ccc21` (centres unmarked) [Example 7, (3-Hydroxy-6-aza-bicyclo[3.2.1]oct-6-yl)-(9-methyl-9H-carbazol-3-yl)-methanone], half-maximal inhibition (IC50) was put at 0.36 µM. Compared with the last molecule, the IC50 is about 5.6-fold higher.
The molecule `Cn1c2ccccc2c2cc(C(=O)N3CC4CC(O)C3C4)ccc21` (centres unmarked) [Example 9, (6-Hydroxy-2-aza-bicyclo[2.2.1]hept-2-yl)-(9-methyl-9H-carbazol-3-yl)-methanone] came in with an IC50 of 0.274 µM. This IC50 and that of the molecule before are within 1.5-fold of each other.
The value for `O=C(c1ccc2[nH]c3ccccc3c2c1)N1CC2CC(O)C1C2` (centres unmarked) [Example 10, (9H-Carbazol-3-yl)-(6-hydroxy-2-aza-bicyclo[2.2.1]hept-2-yl)-methanone] was 1.03 µM; that for `O=C(NC1C2CC3CC1CC(O)(C3)C2)c1ccc2[nH]c3ccccc3c2c1` (centres unmarked) [Example 11, 9H-Carbazole-3-carboxylic acid (5-hydroxy-adamantan-2-yl)-amide] was 0.029 µM.
As to `CN(C(=O)c1ccc2c(c1)c1ccccc1n2C)C1C2CC3CC1CC(O)(C3)C2` (centres unmarked) [Example 12, 9-Methyl-9H-carbazole-3-carboxylic acid (5-hydroxy-adamantan-2-yl)-methyl-amide], the IC50 was 0.041 µM.
In turn, `CN(C(=O)c1ccc2[nH]c3ccccc3c2c1)C1C2CC3CC1CC(O)(C3)C2` (centres unmarked) [Example 13, 9H-Carbazole-3-carboxylic acid (5-hydroxy-adamantan-2-yl)-methyl-amide] yielded an IC50 of 0.076 µM.
